How the values were obtained:
[1] = in vivo; cited from earlier work
[2] = tested on: A549 cells; experiment: Intracellular uptake and release by CLSM in A549 cells; assay type: cell-based, human; conditions: 10 μg/mL DOX equivalents
Method: (§1) A549 (cancer cells) and NIH3T3 (normal cells) cells were seeded at a density of 1.0×10^5 cells/well in an 8-well chamber of a Lab-Tek II chamber slide and preincubated for 24 h at 37° C. and 5% CO2. Serum-free DMEM containing free DOX and DOX-NPs at equivalent doses (10 μg/mL) was added to each well, followed by incubation for 30 min, 2 h and 4 h at 37° C. The cells were then rinsed with PBS, and fixed with 4% formaldehyde solution for 10 min. Cover glasses were then placed on glass slides. The cellular uptake and release behavior of DOX-encapsulated SS or thioester NPs were imaged by confocal laser scanning microscopy (CLSM) (Leica, England) at an excitation wavelength of 488 nm for DOX. Since DOX itself is fluorescent, it was used directly to investigate cellular uptake without additional fluorescent labeling in of the nanoparticles.

[3] = tested on: NIH3T3 cells; experiment: Intracellular uptake and release by CLSM in NIH3T3 cells; assay type: cell-based, Mouse; conditions: 10 μg/mL DOX equivalents, 30 min to 4 h
Method: as §1

[4] = tested on: A549 cells; experiment: MTT cytotoxicity in A549 cells; assay type: cell-based, human; conditions: 24 h
Method: (§2) A549 and NIH3T3 cells (7500 cells/well) were seeded on 96-well plates and cultured in 200 μL of DMEM supplemented with 10% FBS, 1% antibiotics, and 1% L-glutamine for 24 h at 37° C. and 5% CO2. After incubation, various concentrations of DOX-encapsulated SS or thioester NPs and free DOX (1-50 μg/mL of DOX equivalents) dissolved in DMEM without supplements were added. After 24 h of incubation, cytotoxicity was determined using 3-[4,5-dimethylthiazol-2-yl]-[…] bromide dye (MTT dye, final concentration of 0.5 mg/mL) uptake at 540 nm on a microplate reader (Tecan group Ltd., Mannedorf, Switzerland).

[5] = tested on: HeLa cells; experiment: Cellular uptake by CLSM in HeLa cells; assay type: cell-based
Method: To observe the cellular uptake, HeLa cells (cancer cells) were seeded at a density of 1.0×10^5 cells/well in an 8-well chamber of a Lab-Tek II chamber slide and preincubated for 24 h at 37° C. and 5% CO2. […] The cells were then rinsed with PBS, stained with 10 μM Draq5 and fixed with 4% formaldehyde solution for 10 min. Cover glasses were then placed on glass slides. The cellular uptake of free DOX and DOX-NPs was imaged by CLSM at an excitation wavelength of 488 nm for DOX. To quantify cellular uptake, HeLa cells (5×10^5 cells/well) in 0.5 mL were grown on a 24-well plate at 37° C. in a humidified atmosphere of 5% CO2 for 24 h. Serum-free DMEM containing free DOX and DOX-NPs at equivalent doses (25 μg/mL) was added to the cells which were subsequently incubated for 2 h. The cells were then washed three times with PBS, harvested by trypsinization and transferred into Fluorescence Activated Cell Sorter (FACS) tubes. All samples were analyzed by flow cytometry (FACSCalibur, BD Biosciences, San Jose, Calif.) to determine cellular internalization. Fluorescence measurements of intracellular DOX were performed in the FL2 channel.

[6] = tested on: HeLa cells; experiment: MTT cytotoxicity in HeLa cells; assay type: cell-based; conditions: equal DOX concentrations
Method: as §2, with “HeLa cells” for “A549 and NIH3T3 cells”, “of the blank nanoparticles (0.2-1 mg/mL), DOX-NPs,” for “of DOX-encapsulated SS or thioester NPs”, “of incubation with free DOX and DOX-NPs, and 48 h with blank nanoparticles,” for “of incubation,”, “Ltd., Männedorf,” for “Ltd., Mannedorf,”

For `CCCCCCCCCCCCCCCCCCN1C(=CC=CC=CC=CC2=[N+](CCCCCCCCCCCCCCCCCC)c3ccccc3C2(C)C)C(C)(C)c2ccccc21.[I-]` [free hydrophobic DiR, 1,1′-Dioctadecyl-3,3,3′,3′-tetramethylindotricarbocyanine iodide], which “Biodistribution of free dye” value [1] is on record?
The value was “accumulated in liver from 1 h to 24 h with negligible tumor accumulation”.

Which “Location of red DOX fluorescent signal” value ([2]; 30 min) does the source give for `COc1cccc2c1C(=O)c1c(O)c3c(c(O)c1C2=O)C[C@@](O)(C(=O)CO)C[C@@H]3O[C@H]1C[C@H](N)[C@H](O)[C@H](C)O1` [free DOX, doxorubicin] here?
Its value is “entered the cellular nuclei”.

And the “Location of red DOX fluorescent signal” value ([2]; 2 h and 4 h)?
The value was “strong red signal in the cellular nuclei”.

What about the “Location of red DOX fluorescent signal” value [3] of the same compound?
Its value is “red signal was observed in the cellular nuclei”.

What about the “Decrease of cell viability” value ([4]; 1-50 μg/mL DOX, dose-dependent) of the same compound?
The value was 5-82%.

And the “Cytotoxicity relative to DOX-encapsulated thioester-NPs” value ([4]; all DOX concentrations)?
Its value is “significantly higher”.

What about the “Red DOX fluorescent signal in cells” value ([5]; 2 h) of the same compound?
Its value is “red fluorescent signal was observed”.

What about the Cell morphology ([5]; 4 h) of the same compound?
Its Cell morphology is “cell shrinkage and blebbing”.

And the “Red DOX fluorescent signal in cells” value ([5]; 4 h)?
The value was “significant increases in the red signal”.

And the Relative cytotoxicity [6]?
The Relative cytotoxicity was “significantly higher cytotoxicity than DOX-encapsulated NPs”.

Source: US9975983B2, “Bio-reducible self-assembled liquid crystalline block copolymer for drug delivery” (UNIVERSITY OF CONNECTICUT, priority 2014, dated 2018)
